The text below walks through data of ChEMBL document CHEMBL1153992, “2-Azidoalkoxy-7-hydro-8-oxoadenine derivatives as TLR7 agonists inducing dendritic cell maturation” (Bioorg Med Chem Lett, 2009).

Holding throughout (format): cell-based
Assay [1] concerns the target T1, Toll-like receptor 7 (Mus musculus) (UniProt P58681).
T1 sequence (whole entry): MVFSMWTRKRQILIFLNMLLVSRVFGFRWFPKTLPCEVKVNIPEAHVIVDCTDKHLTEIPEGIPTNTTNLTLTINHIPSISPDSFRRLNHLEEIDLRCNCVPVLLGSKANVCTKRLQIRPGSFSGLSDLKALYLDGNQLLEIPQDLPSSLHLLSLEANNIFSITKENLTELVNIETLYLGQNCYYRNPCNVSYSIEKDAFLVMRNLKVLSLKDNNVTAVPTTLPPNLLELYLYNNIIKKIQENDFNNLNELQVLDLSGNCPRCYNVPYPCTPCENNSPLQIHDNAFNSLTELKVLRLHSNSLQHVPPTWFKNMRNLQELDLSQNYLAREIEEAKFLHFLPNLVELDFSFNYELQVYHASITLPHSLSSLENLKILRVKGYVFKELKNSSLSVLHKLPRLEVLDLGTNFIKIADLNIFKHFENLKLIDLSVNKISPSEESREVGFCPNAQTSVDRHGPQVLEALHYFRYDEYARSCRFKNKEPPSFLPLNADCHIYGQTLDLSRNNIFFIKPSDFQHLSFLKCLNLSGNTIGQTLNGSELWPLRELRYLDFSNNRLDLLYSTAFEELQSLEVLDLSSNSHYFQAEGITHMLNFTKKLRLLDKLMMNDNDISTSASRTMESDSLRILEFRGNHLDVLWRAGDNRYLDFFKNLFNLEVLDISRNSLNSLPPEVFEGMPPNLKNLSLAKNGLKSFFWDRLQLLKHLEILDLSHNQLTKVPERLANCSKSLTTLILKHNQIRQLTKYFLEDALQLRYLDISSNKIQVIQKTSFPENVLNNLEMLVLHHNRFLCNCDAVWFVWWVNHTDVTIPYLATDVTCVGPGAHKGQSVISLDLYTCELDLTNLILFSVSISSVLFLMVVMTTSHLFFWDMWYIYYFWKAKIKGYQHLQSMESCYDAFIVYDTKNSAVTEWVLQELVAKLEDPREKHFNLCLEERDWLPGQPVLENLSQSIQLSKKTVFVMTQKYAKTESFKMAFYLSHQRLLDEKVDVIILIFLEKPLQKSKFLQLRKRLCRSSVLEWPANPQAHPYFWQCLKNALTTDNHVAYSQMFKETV
Nature of the assay: Induction of TLR7 receptor-mediated C57BL/6 mouse BMD cells activation assessed as upregulation of CD40 at 1 uM after 48 hrs by flow cytometry. A general note: Flow cytometry measures light scatter and fluorescence of single cells or particles in a stream.

For assay [2], the target named is T1, Toll-like receptor 7 (Mus musculus). In words: Induction of TLR7 receptor-mediated C57BL/6 mouse BMD cells activation assessed as upregulation of CD86 at 1 uM after 48 hrs by flow cytometry.
Assay [3] shares this target. In words: Induction of TLR7 receptor-mediated C57BL/6 mouse BMD cells activation assessed as upregulation of MHC class-2 at 1 uM after 48 hrs by flow cytometry.
For assay [4] the target is unchanged. Nature of the assay: Induction of TLR7 receptor-mediated C57BL/6 mouse BMD cells activation assessed as IL12 production at 5 uM after 24 hrs by ELISA. (In an ELISA, binding on a coated surface is turned into a signal by an enzyme label.)
For assay [5] the target is unchanged. Nature of the assay: Induction of TLR7 receptor-mediated C57BL/6 mouse BMD cells activation assessed as IL12 production at 0.1 uM after 24 hrs by ELISA.
Assay [6] shares this target. Nature of the assay: Induction of TLR7 receptor-mediated C57BL/6 mouse BMD cells activation assessed as IL12 production at 10 nM after 24 hrs by ELISA.

Activity calls are given as the source filed them. The rule behind the calls is not given here.

On to `[N-]=[N+]=NCCCCOc1nc(N)c2[nH]c(=O)n(Cc3ccccc3)c2n1`, for which the outcome in assay [1], in assay [2], in assay [3] and in assay [4] was Active.
On to `[N-]=[N+]=NCCOCCOCCOc1nc(N)c2[nH]c(=O)n(Cc3ccccc3)c2n1`, for which the result in assay [1], in assay [2] and in assay [3] was inactive.
For `COCCOc1nc(N)c2[nH]c(=O)n(Cc3ccccc3)c2n1`, the outcome in assay [1], in assay [2], in assay [3] and in assay [4] was Active.
On to `[N-]=[N+]=NCCCCCCOc1nc(N)c2[nH]c(=O)n(Cc3ccccc3)c2n1`, for which the outcome in assay [1], in assay [2], in assay [3] and in assay [4] was Active.
On to `[N-]=[N+]=NCCOc1nc(N)c2[nH]c(=O)n(Cc3ccccc3)c2n1`, for which the result in assay [5], in assay [1], in assay [2], in assay [3] and in assay [4] was Active.
`CCCCOc1nc(N)c2[nH]c(=O)n(Cc3ccccc3)c2n1`: the result in assay [6], in assay [1], in assay [2], in assay [3] and in assay [4] was Active.
Take `CCOCc1nc2c(N)nc3ccccc3c2n1CC(C)(C)O`: the outcome in assay [1], in assay [2], in assay [3] and in assay [4] was Active.
With `[N-]=[N+]=NCCCCCOc1nc(N)c2[nH]c(=O)n(Cc3ccccc3)c2n1`, the result in assay [1], in assay [2], in assay [3] and in assay [4] was Active.
Turning to `[N-]=[N+]=NCCCOc1nc(N)c2[nH]c(=O)n(Cc3ccccc3)c2n1`, the result in assay [5], in assay [1], in assay [2], in assay [3] and in assay [4] was Active.
With `[N-]=[N+]=NCCOCCOc1nc(N)c2[nH]c(=O)n(Cc3ccccc3)c2n1`, the outcome in assay [1], in assay [2], in assay [3] and in assay [4] was Active.
